Some targets named below: CLK1 (Homo sapiens, UniProt P49759); FES (Homo sapiens, UniProt P07332); CK1e (Homo sapiens, UniProt P49674).
What all share (assay): biochemical
A further experiment concerns the target T1, DMPK1 (Homo sapiens, UniProt Q09013).
T1 sequence (Q09013 1-629): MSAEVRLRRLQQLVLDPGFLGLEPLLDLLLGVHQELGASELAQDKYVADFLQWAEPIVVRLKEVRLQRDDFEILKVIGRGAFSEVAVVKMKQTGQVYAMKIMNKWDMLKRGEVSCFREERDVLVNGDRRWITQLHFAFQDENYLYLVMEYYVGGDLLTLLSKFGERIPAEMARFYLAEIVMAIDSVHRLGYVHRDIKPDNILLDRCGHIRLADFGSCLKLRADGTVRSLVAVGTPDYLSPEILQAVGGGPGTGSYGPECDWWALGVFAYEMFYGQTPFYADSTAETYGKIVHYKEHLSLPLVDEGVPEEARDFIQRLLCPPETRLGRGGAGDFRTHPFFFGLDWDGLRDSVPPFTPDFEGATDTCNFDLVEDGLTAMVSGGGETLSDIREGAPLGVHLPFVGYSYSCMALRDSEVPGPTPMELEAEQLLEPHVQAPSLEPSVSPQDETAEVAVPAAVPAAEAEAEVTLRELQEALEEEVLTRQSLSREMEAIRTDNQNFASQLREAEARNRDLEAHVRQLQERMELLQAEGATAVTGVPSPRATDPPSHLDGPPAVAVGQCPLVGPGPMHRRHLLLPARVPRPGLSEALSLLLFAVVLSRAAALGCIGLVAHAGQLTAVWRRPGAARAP

Another experiment addresses T2, PLK4 (Homo sapiens, UniProt O00444).
T2 sequence (O00444 1-970): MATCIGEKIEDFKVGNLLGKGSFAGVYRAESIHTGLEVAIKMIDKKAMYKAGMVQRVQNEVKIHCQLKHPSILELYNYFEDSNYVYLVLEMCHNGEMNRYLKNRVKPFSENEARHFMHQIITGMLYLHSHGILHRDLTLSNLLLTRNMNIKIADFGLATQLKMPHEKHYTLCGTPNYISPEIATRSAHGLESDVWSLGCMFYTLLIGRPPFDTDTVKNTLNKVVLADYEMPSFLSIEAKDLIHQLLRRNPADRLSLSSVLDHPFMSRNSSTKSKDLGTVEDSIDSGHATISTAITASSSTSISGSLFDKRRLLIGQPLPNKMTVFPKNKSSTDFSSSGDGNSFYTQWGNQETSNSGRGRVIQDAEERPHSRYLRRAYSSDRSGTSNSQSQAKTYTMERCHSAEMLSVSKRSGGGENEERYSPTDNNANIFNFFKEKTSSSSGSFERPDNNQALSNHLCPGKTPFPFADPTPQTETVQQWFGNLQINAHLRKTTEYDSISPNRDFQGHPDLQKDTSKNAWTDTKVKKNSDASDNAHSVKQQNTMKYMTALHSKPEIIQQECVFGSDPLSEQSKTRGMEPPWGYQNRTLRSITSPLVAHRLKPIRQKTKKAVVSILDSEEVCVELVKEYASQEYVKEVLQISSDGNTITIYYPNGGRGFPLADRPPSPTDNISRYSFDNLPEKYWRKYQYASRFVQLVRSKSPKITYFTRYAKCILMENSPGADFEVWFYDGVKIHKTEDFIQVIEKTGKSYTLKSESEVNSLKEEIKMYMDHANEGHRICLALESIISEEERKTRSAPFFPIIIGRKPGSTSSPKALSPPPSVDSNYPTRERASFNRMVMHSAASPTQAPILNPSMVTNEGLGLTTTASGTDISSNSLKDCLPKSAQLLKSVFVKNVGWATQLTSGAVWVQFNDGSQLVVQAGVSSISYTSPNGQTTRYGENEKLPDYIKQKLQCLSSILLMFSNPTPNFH

For the next experiment, the target named is T3, TTK (Homo sapiens, UniProt P33981).
T3 sequence (P33981 1-857): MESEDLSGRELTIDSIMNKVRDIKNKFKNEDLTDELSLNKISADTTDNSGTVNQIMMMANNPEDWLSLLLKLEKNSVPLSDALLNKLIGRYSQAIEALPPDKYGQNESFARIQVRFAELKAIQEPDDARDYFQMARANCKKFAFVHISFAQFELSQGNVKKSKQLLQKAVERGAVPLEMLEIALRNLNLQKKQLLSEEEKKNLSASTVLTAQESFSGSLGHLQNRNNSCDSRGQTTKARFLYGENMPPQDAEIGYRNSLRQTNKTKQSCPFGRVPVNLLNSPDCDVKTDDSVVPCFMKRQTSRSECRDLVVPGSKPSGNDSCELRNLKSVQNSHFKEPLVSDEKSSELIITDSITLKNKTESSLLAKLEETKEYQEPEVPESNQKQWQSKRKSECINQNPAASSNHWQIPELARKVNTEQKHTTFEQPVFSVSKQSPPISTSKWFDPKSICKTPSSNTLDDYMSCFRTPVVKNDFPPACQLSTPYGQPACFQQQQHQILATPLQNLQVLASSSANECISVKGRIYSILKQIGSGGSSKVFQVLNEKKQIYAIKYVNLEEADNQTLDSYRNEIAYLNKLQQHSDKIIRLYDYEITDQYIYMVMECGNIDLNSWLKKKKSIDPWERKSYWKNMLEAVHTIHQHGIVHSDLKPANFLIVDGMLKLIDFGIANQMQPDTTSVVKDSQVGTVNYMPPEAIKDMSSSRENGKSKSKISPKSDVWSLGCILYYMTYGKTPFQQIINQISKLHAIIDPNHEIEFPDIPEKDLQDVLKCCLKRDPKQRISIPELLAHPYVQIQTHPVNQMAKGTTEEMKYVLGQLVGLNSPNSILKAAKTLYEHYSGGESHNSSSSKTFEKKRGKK

Experimental findings from article doi:10.1101/2023.03.24.534094v2 (biorxiv, 2023) are described below.

Like-named read-outs stand apart in the source and are kept apart here.

Chain of FES (P07332 whole entry): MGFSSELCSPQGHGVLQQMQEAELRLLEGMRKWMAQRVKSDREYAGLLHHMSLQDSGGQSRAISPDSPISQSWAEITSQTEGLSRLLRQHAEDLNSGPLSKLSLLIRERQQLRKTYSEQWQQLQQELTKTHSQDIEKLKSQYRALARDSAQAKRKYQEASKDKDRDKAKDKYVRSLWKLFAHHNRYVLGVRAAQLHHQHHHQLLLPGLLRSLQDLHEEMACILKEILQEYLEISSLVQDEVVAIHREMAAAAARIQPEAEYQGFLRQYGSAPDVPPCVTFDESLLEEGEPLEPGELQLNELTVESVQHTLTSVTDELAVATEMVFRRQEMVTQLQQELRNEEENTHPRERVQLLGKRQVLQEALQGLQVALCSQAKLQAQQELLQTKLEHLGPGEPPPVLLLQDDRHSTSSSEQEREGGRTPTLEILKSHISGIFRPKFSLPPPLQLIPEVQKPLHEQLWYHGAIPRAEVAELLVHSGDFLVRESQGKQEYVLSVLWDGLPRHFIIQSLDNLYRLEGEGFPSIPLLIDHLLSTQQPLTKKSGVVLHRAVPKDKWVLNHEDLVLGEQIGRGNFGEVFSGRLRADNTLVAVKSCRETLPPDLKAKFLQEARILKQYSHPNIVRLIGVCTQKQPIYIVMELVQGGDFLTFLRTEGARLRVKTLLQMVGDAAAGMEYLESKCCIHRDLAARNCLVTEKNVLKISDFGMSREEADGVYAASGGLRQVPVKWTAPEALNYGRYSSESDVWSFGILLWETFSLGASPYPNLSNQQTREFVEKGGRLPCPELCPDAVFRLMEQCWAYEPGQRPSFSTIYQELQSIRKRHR
Chain of CK1e (P49674 whole entry): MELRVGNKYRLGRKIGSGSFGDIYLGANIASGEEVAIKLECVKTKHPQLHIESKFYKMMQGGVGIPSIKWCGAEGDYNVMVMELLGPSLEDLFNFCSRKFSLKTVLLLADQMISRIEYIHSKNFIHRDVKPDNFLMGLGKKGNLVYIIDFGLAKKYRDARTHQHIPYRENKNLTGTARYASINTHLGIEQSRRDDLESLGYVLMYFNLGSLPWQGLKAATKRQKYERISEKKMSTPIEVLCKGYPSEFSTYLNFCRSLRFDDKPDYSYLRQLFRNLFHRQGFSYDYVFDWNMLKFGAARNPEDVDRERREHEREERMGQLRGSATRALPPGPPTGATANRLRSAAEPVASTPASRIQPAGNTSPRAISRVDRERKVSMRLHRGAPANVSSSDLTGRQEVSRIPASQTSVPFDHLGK
Chain of CLK1 (P49759 whole entry): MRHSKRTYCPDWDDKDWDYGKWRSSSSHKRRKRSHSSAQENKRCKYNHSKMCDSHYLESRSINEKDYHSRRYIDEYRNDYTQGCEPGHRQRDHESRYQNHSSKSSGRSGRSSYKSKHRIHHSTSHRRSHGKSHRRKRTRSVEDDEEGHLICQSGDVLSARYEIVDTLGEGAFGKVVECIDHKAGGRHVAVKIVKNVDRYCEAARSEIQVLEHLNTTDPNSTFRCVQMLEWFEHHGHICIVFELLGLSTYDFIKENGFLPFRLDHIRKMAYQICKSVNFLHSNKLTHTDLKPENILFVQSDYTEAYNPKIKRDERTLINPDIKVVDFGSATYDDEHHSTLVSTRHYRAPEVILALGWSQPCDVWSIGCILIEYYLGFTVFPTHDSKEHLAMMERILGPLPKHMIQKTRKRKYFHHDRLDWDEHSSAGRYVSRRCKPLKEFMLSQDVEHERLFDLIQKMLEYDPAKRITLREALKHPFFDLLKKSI

In the case of `CNc1ncc2cc(-c3ccc(-c4cccc(C)n4)cc3Cl)c(=O)n(CC3OCC(N)CO3)c2n1` (stereo not drawn) [compound 2, G-5555], the “dTm G-5555 (2)” value is 0.1 °C at CLK1 (10 µM, binder); -0.3 °C at DMPK1 (10 µM, binder); 4.1 °C at FES (10 µM, binder); 3.4 °C on PLK4 (10 µM, binder); 1.5 °C at TTK (10 µM, binder).

Take `CNc1ncc2cc(-c3ccccc3Cl)c(=O)n(CCCCN)c2n1` [compound 4, 8-(4-Aminobutyl)-6-(2-chlorophenyl)-2-(methylamino)pyrido[2,3-d]pyrimidin-7(8H)-one]: the ΔTm at 10 µM at CK1e (read-out: dTm MR21 (4)) is 4.9 °C; on CLK1 (read-out: dTm MR21 (4)), -1.2 °C; at DMPK1 (read-out: dTm MR21 (4)), 2.8 °C; at FES (read-out: dTm MR21 (4)), 3 °C; on PLK4 (read-out: dTm MR21 (4)), 0 °C; at TTK (read-out: dTm MR21 (4)), 0.9 °C.

As to `CNc1ncc2cc(-c3cc(Br)ccc3Cl)c(=O)n(C[C@H]3OC[C@H](N)CO3)c2n1` [compound 7, 8-(((2r,5r)-5-Amino-1,3-dioxan-2-yl)methyl)-6-(5-bromo-2-chlorophenyl)-2-(methylamino)pyrido[2,3-d]pyrimidin-7(8H)-one], the ΔTm at 10 µM is 0.4 °C at CLK1 (read-out: dTm 7); -0.1 °C at DMPK1 (read-out: dTm 7); 1.1 °C at FES (read-out: dTm 7); 0.4 °C at PLK4 (read-out: dTm 7); -0.2 °C on TTK (read-out: dTm 7).

As to `CNc1ncc2cc(-c3cc(Br)ccc3Cl)c(=O)n(CCCCN)c2n1` [compound 6, 8-(4-Aminobutyl)-6-(5-bromo-2-chlorophenyl)-2-(methylamino)pyrido[2,3-d]pyrimidin-7(8H)-one], the ΔTm at 10 µM at CK1e (read-out: dTm 6) turned out to be 2.6 °C; on CLK1 (read-out: dTm 6), 0.2 °C; at DMPK1 (read-out: dTm 6), 1.2 °C; on FES (read-out: dTm 6) it was 2.5 °C; at PLK4 (read-out: dTm 6), 0.4 °C; on TTK (read-out: dTm 6), 0.2 °C.

Consider `CNc1ncc2cc(-c3cc(F)ccc3F)c(=O)n(CCCCN)c2n1` [compound 5, 8-(4-Aminobutyl)-6-(2,5-difluorophenyl)-2-(methylamino)pyrido[2,3-d]pyrimidin-7(8H)-one], for which the ΔTm at 10 µM on CK1e (read-out: dTm MR22 (5)) is 2.8 °C; at CLK1 (read-out: dTm MR22 (5)), 0.4 °C; on DMPK1 (read-out: dTm MR22 (5)), 0.9 °C; on PLK4 (read-out: dTm MR22 (5)), 0.3 °C; on TTK (read-out: dTm MR22 (5)), -2.6 °C.
